Test results taken from patent US20260176320A1, “MODULATORS OF G-PROTEIN COUPLED RECEPTORS” (priority 2018, published 2026).
Where two headings read alike, the source gives them in different places.

What was measured:
Type in all cases: cell-based
[1] = target: T1, GLP-1R (Homo sapiens, UniProt P43220); test: PathHunter β-arrestin assay
Summary of the method: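 Following a 90 min agonist exposure at 37 °C in 0.2% BSA medium, β-arrestin coupling was detected by chemiluminescence after 3 h at room temperature.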

[2] = target: T2, GIP-R (Homo sapiens, UniProt P48546); test: HitHunter cAMP assay (GIP-R); conditions: cAMP; for Emax at 1 µM: read-out: (Emax) GIP-R at 1 μM, Table 3; for Emax: read-out: (Emax) GIP-R
T2 sequence (P48546 22-466): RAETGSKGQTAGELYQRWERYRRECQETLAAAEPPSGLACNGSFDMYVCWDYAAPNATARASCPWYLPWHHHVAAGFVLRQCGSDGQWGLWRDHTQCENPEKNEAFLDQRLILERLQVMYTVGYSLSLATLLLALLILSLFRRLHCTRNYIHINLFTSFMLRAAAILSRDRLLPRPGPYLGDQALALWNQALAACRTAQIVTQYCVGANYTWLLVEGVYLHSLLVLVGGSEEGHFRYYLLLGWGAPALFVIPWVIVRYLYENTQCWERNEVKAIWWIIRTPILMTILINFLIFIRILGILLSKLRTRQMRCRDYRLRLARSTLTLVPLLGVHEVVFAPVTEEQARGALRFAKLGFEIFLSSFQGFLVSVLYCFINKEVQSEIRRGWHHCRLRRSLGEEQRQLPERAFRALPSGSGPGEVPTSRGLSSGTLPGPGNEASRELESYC
Summary of the method: (§1)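 Duplicate 22-point, 2-fold agonist titrations applied to receptor-expressing suspension cells in IBMX-containing HBSS; 30 min RT stimulation. Read: luminescent cAMP immunocompetition after O/N dark incubation.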

[3] = target: T1, GLP-1R; test: HitHunter cAMP assay (GLP-1R); conditions: cAMP; for Emax: read-out: (Emax) GLP-1R
Summary of the method: as §1

[4] = PathHunter β-arrestin assay, read-out: β-arrestin activity EC50
[5] = Table 3, read-out: EC50 GIP-R/nM
[6] = Table 3A, read-out: EC50 GIP-R/nM
[7] = Table 3, read-out: EC50 GLP-1R/nM
[8] = Table 3A, read-out: EC50 GLP-1R/nM

T1 sequence (P43220 24-463): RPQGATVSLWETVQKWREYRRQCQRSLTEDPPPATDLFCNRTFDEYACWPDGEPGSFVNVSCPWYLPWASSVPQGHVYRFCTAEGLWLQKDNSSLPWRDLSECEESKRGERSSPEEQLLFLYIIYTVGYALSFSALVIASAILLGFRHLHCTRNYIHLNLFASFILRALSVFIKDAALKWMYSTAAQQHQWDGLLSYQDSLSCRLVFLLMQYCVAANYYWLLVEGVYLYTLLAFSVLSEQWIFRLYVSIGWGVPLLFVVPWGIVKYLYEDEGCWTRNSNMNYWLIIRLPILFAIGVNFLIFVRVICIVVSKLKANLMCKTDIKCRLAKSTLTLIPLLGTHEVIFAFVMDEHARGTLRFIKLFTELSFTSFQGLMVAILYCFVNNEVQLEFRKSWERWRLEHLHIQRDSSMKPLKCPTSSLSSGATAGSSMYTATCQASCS

Row | SMILES | EC50 [1, 4] | EC50 [2, 5] | EC50 [2, 6] | Emax at 1 µM [2] | Emax ([3]; Table 3) | EC50 [3, 7] | Emax ([3]; Table 3A) | EC50 [3, 8] | EC50 [1] | EC50 ([2]; EC50 GIP-R/nM, Table 3) | EC50 ([2]; EC50 GIP-R/nM, Table 3A) | Emax ([2]; Table 3) | Emax ([2]; Table 3A) | EC50 ([3]; EC50 GLP-1R/nM, Table 3) | EC50 ([3]; EC50 GLP-1R/nM, Table 3A) | EC50 ([2]; read-out: EC50 GIP-R/nM, Table 3A)
1 | CC[C@H](C)[C@H](NC(=O)[C@H](CO)NC(=O)[C@H](Cc1ccc(O)cc1)NC(=O)[C@H](CC(=O)O)NC(=O)[C@H](CO)NC(=O)[C@@H](NC(=O)[C@H](Cc1ccccc1)NC(=O)[C@@H](NC(=O)CNC(=O)[C@H](CCC(=O)O)NC(=O)CNC(=O)CCCCN1C(=O)CSC1=O)[C@@H](C)O)[C@@H](C)O)C(=O)N[C@@H](Cc1ccc(O)cc1)C(=O)N[C@@H](CC(C)C)C(=O)N[C@@H](CC(=O)O)C(=O)N[C@@H](CCCCN)C(=O)N[C@@H](CCC(N)=O)C(=O)N[C@@H](C)C(=O)N[C@@H](C)C(=O)NC(C)(C)C(=O)N[C@@H](CCC(=O)O)C(=O)N[C@@H](Cc1ccccc1)C(=O)N[C@H](C(=O)N[C@@H](CC(N)=O)C(=O)N[C@@H](Cc1c[nH]c2ccccc12)C(=O)N[C@@H](CC(C)C)C(=O)N[C@@H](CC(C)C)C(=O)N[C@@H](C)C(=O)NCC(=O)NCC(=O)N1CCC[C@H]1C(=O)N[C@@H](CO)C(=O)N[C@@H](CO)C(=O)NCC(=O)N[C@@H](C)C(=O)N1CCC[C@H]1C(=O)N1CCC[C@H]1C(=O)N1CCC[C@H]1C(=O)N[C@@H](CO)C(=O)N[C@@H](CCCCN)C(N)=O)C(C)C [Compound 171] | > 1000 nM | > 1000 nM | > 1000 nM | 6.5% | 93 to 98% | 1 to 10 nM | 93 to 98% | 1 to 10 nM | – | – | – | – | – | – | – | –
2 | CC[C@H](C)[C@H](NC(=O)[C@H](CO)NC(=O)[C@H](Cc1ccc(O)cc1)NC(=O)[C@H](CC(=O)O)NC(=O)[C@H](CO)NC(=O)[C@@H](NC(=O)[C@H](Cc1ccccc1)NC(=O)[C@@H](NC(=O)CNC(=O)[C@H](CCC(=O)O)NC(=O)CCNC(=O)CCCN1C(=O)CSC1=O)[C@@H](C)O)[C@@H](C)O)C(=O)N[C@@H](Cc1ccc(O)cc1)C(=O)N[C@@H](CC(C)C)C(=O)N[C@@H](CC(=O)O)C(=O)N[C@@H](CCCCN)C(=O)N[C@@H](CCC(N)=O)C(=O)N[C@@H](C)C(=O)N[C@@H](C)C(=O)NC(C)(C)C(=O)N[C@@H](CCC(=O)O)C(=O)N[C@@H](Cc1ccccc1)C(=O)N[C@H](C(=O)N[C@@H](CC(N)=O)C(=O)N[C@@H](Cc1c[nH]c2ccccc12)C(=O)N[C@@H](CC(C)C)C(=O)N[C@@H](CC(C)C)C(=O)N[C@@H](C)C(=O)NCC(=O)NCC(=O)N1CCC[C@H]1C(=O)N[C@@H](CO)C(=O)N[C@@H](CO)C(=O)NCC(=O)N[C@@H](C)C(=O)N1CCC[C@H]1C(=O)N1CCC[C@H]1C(=O)N1CCC[C@H]1C(=O)N[C@@H](CO)C(=O)N[C@@H](CCCCN)C(N)=O)C(C)C [Compound 172] | – | – | – | – | 98 to 101% | – | 98 to 101% | – | > 1000 nM | 10 to 100 nM | 10 to 100 nM | 63 to 71% | 63 to 71% | 1 to 10 nM | 1 to 10 nM | –
3 | CCCCCCCCCCCCCCCC(=O)N[C@@H](CCC(=O)NCCCC[C@H](NC(=O)[C@H](CO)NC(=O)[C@@H]1CCCN1C(=O)[C@@H]1CCCN1C(=O)[C@@H]1CCCN1C(=O)[C@H](C)NC(=O)CNC(=O)[C@H](CO)NC(=O)[C@H](CO)NC(=O)[C@@H]1CCCN1C(=O)CNC(=O)CNC(=O)[C@H](C)NC(=O)[C@H](CC(C)C)NC(=O)[C@H](CC(C)C)NC(=O)[C@H](Cc1c[nH]c2ccccc12)NC(=O)[C@H](CC(N)=O)NC(=O)[C@@H](NC(=O)[C@H](Cc1ccccc1)NC(=O)[C@H](CCC(=O)O)NC(=O)C(C)(C)NC(=O)[C@H](C)NC(=O)[C@H](C)NC(=O)[C@H](CCC(N)=O)NC(=O)[C@H](CCCCN)NC(=O)[C@H](CC(=O)O)NC(=O)[C@H](CC(C)C)NC(=O)[C@H](Cc1ccc(O)cc1)NC(=O)[C@@H](NC(=O)[C@H](CO)NC(=O)[C@H](Cc1ccc(O)cc1)NC(=O)[C@H](CC(=O)O)NC(=O)[C@H](CO)NC(=O)[C@@H](NC(=O)[C@H](Cc1ccccc1)NC(=O)[C@@H](NC(=O)CNC(=O)[C@H](CCC(=O)O)NC(=O)CSCC(=O)NCCN1C(=O)c2ccccc2C1=O)[C@@H](C)O)[C@@H](C)O)[C@@H](C)CC)C(C)C)C(N)=O)C(=O)O [Compound 173] | – | – | – | – | 90 to 105% | – | 90 to 105% | – | > 1000 nM | 0.1 to 1 nM | 0.1 to 1 nM | 92 to 111% | 92 to 111% | 1 to 10 nM | 1 to 10 nM | –
4 | CC[C@H](C)[C@H](NC(=O)[C@H](CO)NC(=O)[C@H](Cc1ccc(O)cc1)NC(=O)[C@H](CC(=O)O)NC(=O)[C@H](CO)NC(=O)[C@@H](NC(=O)[C@H](Cc1ccccc1)NC(=O)[C@@H](NC(=O)CNC(=O)[C@H](CCC(=O)O)NC(=O)CCCCCCN1C(=O)CSC1=O)[C@@H](C)O)[C@@H](C)O)C(=O)N[C@@H](Cc1ccc(O)cc1)C(=O)N[C@@H](CC(C)C)C(=O)N[C@@H](CC(=O)O)C(=O)N[C@@H](CCCCN)C(=O)N[C@@H](CCC(N)=O)C(=O)N[C@@H](C)C(=O)N[C@@H](C)C(=O)NC(C)(C)C(=O)N[C@@H](CCC(=O)O)C(=O)N[C@@H](Cc1ccccc1)C(=O)N[C@H](C(=O)N[C@@H](CC(N)=O)C(=O)N[C@@H](Cc1c[nH]c2ccccc12)C(=O)N[C@@H](CC(C)C)C(=O)N[C@@H](CC(C)C)C(=O)N[C@@H](C)C(=O)NCC(=O)NCC(=O)N1CCC[C@H]1C(=O)N[C@@H](CO)C(=O)N[C@@H](CO)C(=O)NCC(=O)N[C@@H](C)C(=O)N1CCC[C@H]1C(=O)N1CCC[C@H]1C(=O)N1CCC[C@H]1C(=O)N[C@@H](CO)C(=O)N[C@@H](CCCCN)C(N)=O)C(C)C [Compound 176] | – | – | – | 1.8% | 92% | – | 92% | – | > 1000 nM | > 1000 nM | – | – | – | 10 to 100 nM | 10 to 100 nM | > 1000 nM
5 | CC[C@H](C)[C@H](NC(=O)[C@H](CO)NC(=O)[C@H](Cc1ccc(O)cc1)NC(=O)[C@H](CC(=O)O)NC(=O)[C@H](CO)NC(=O)[C@@H](NC(=O)[C@H](Cc1ccccc1)NC(=O)[C@@H](NC(=O)CNC(=O)[C@H](CCC(=O)O)NC(=O)CCCCNC(=O)CN1C(=O)CSC1=O)[C@@H](C)O)[C@@H](C)O)C(=O)N[C@@H](Cc1ccc(O)cc1)C(=O)N[C@@H](CC(C)C)C(=O)N[C@@H](CC(=O)O)C(=O)N[C@@H](CCCCN)C(=O)N[C@@H](CCC(N)=O)C(=O)N[C@@H](C)C(=O)N[C@@H](C)C(=O)NC(C)(C)C(=O)N[C@@H](CCC(=O)O)C(=O)N[C@@H](Cc1ccccc1)C(=O)N[C@H](C(=O)N[C@@H](CC(N)=O)C(=O)N[C@@H](Cc1c[nH]c2ccccc12)C(=O)N[C@@H](CC(C)C)C(=O)N[C@@H](CC(C)C)C(=O)N[C@@H](C)C(=O)NCC(=O)NCC(=O)N1CCC[C@H]1C(=O)N[C@@H](CO)C(=O)N[C@@H](CO)C(=O)NCC(=O)N[C@@H](C)C(=O)N1CCC[C@H]1C(=O)N1CCC[C@H]1C(=O)N1CCC[C@H]1C(=O)N[C@@H](CO)C(=O)N[C@@H](CCCCN)C(N)=O)C(C)C [Compound 177] | > 1000 nM | > 1000 nM | > 1000 nM | 9% | 96% | 1 to 10 nM | 96% | 1 to 10 nM | – | – | – | – | – | – | – | –
6 | CC[C@H](C)[C@H](NC(=O)[C@H](CO)NC(=O)[C@H](Cc1ccc(O)cc1)NC(=O)[C@H](CC(=O)O)NC(=O)[C@H](CO)NC(=O)[C@@H](NC(=O)[C@H](Cc1ccccc1)NC(=O)[C@@H](NC(=O)CNC(=O)[C@H](CCC(=O)O)NC(=O)CCCNC(=O)CN1C(=O)CSC1=O)[C@@H](C)O)[C@@H](C)O)C(=O)N[C@@H](Cc1ccc(O)cc1)C(=O)N[C@@H](CC(C)C)C(=O)N[C@@H](CC(=O)O)C(=O)N[C@@H](CCCCN)C(=O)N[C@@H](CCC(N)=O)C(=O)N[C@@H](C)C(=O)N[C@@H](C)C(=O)NC(C)(C)C(=O)N[C@@H](CCC(=O)O)C(=O)N[C@@H](Cc1ccccc1)C(=O)N[C@H](C(=O)N[C@@H](CC(N)=O)C(=O)N[C@@H](Cc1c[nH]c2ccccc12)C(=O)N[C@@H](CC(C)C)C(=O)N[C@@H](CC(C)C)C(=O)N[C@@H](C)C(=O)NCC(=O)NCC(=O)N1CCC[C@H]1C(=O)N[C@@H](CO)C(=O)N[C@@H](CO)C(=O)NCC(=O)N[C@@H](C)C(=O)N1CCC[C@H]1C(=O)N1CCC[C@H]1C(=O)N1CCC[C@H]1C(=O)N[C@@H](CO)C(=O)N[C@@H](CCCCN)C(N)=O)C(C)C [Compound 178] | > 1000 nM | 100 to 1000 nM | 100 to 1000 nM | – | 97% | 1 to 10 nM | 97% | 1 to 10 nM | – | – | – | 38% | 38% | – | – | –
